What all share (assay type): cell-based
Assay [1] deals with T1, GLP-1 receptor (Homo sapiens, UniProt P43220). The assay can be described thus: HitHunter cAMP assay, GLP-1 receptor. As to conditions: for Emax: read-out: Emax GLP-1R.
Assay [2] has as its target T2, GIP receptor (Homo sapiens, UniProt P48546).
T2 sequence (P48546 22-466): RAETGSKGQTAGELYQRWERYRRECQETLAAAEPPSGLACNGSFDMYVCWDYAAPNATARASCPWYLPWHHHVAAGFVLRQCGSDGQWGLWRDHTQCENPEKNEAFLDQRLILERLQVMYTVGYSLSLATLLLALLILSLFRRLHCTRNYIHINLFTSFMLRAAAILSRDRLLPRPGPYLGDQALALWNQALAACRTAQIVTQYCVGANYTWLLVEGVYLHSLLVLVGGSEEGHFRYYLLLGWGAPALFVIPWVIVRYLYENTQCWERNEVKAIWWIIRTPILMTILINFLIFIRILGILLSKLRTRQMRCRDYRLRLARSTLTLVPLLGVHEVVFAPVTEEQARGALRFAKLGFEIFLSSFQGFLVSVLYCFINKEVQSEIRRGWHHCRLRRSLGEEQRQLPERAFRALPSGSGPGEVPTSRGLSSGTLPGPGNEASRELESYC
As to the kind of experiment: HitHunter cAMP assay, GIP receptor. As to conditions: for Emax: read-out: Emax GIP-1R. A general note: Cyclic AMP is a second messenger, typically raised through Gs and lowered through Gi signalling.

Assay [3] has as its target T2, GIP receptor. As to the kind of experiment: PathHunter β-arrestin assay, GIP receptor. Further details: host or cells: PathHunter CHO-K1 GIPR β-Arrestin Cell Line.
Assay [4] deals with T1, GLP-1 receptor. As to the kind of experiment: PathHunter β-arrestin assay, GLP-1 receptor. On the set-up: host or cells: PathHunter CHO-K1 GLP1R β-Arrestin Cell Line.

Read-outs that look alike come from different tables or passages of the source. *1 amine or outer side, *2 acyl side, *3 side chain or, on linkers, in order; H or OH if unused. Where a SMILES comes first, the peptide text is derived from it. Side-chain parts run from the residue outwards. [ ]: non-standard residue; d: D form. The star is where a group is joined. C20 diacid = O=C(O)CCCCCCCCCCCCCCCCCCC(=O)*; γGlu = O=C(O)[C@H](CCC(=O)[*:2])N[*:1]; NH(3-Cl-phenyl) = Clc1cccc(N*)c1; NH(4-Cl-phenyl) = Clc1ccc(N*)cc1; NH(4-Me-phenyl) = Cc1ccc(N*)cc1; X45 = CC(Cn1cc(Br)cn1)NCCC(=O)*; AEEA = NCCOCCOCC(=O)O; Aib = CC(C)(N)C(=O)O; CO = O=C([*:1])[*:2]; GABA = NCCCC(=O)O; βAla = NCCC(=O)O

T1 sequence (P43220 24-463): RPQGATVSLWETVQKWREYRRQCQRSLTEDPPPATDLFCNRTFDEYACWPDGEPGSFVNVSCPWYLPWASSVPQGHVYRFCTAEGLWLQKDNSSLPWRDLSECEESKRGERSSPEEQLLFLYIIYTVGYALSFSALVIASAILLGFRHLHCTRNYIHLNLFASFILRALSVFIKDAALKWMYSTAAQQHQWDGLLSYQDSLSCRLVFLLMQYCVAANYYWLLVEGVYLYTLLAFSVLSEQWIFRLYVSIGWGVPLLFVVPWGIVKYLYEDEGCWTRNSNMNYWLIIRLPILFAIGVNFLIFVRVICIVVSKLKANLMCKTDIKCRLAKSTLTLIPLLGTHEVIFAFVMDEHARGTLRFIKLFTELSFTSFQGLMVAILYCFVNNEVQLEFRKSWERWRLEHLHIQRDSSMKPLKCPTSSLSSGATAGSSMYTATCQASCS

One may read the EC50 as the concentration giving half of the maximal effect. The Emax is the greatest response seen or fitted, relative to the assay's reference. With `CC[C@H](C)[C@H](NC(=O)[C@H](CC(C)C)NC(=O)[C@H](Cc1c[nH]c2ccccc12)NC(=O)[C@H](CCC(N)=O)NC(=O)[C@@H](NC(=O)[C@H](Cc1ccccc1)NC(=O)[C@H](C)NC(=O)[C@H](CCCCNC(=O)COCCOCCNC(=O)COCCOCCNC(=O)CC[C@H](NC(=O)CCCCCCCCCCCCCCCCCCC(=O)O)C(=O)O)NC(=O)[C@H](CCC(N)=O)NC(=O)[C@H](C)NC(=O)[C@@H](NC(=O)[C@H](CCCCN)NC(=O)[C@H](CC(=O)O)NC(=O)[C@H](CC(C)C)NC(=O)C(C)(C)NC(=O)[C@@H](NC(=O)[C@H](CO)NC(=O)[C@H](Cc1ccc(O)cc1)NC(=O)[C@H](CC(=O)O)NC(=O)[C@H](CO)NC(=O)[C@@H](NC(=O)[C@H](Cc1ccccc1)NC(=O)[C@@H](NC(=O)CNC(=O)[C@H](CCC(=O)O)NC(=O)CCCNC(=O)CNC(=O)Nc1ccc(Cl)cc1)[C@@H](C)O)[C@@H](C)O)[C@@H](C)CC)[C@@H](C)CC)C(C)C)C(=O)N[C@@H](C)C(=O)NCC(=O)NCC(=O)N1CCC[C@H]1C(=O)N[C@@H](CO)C(=O)N[C@@H](CO)C(=O)NCC(=O)N[C@@H](C)C(=O)N1CCC[C@H]1C(=O)N1CCC[C@H]1C(=O)N1CCC[C@H]1C(=O)N[C@@H](CO)C(N)=O` [Compound 270] ({NH(4-Cl-phenyl)-CO}-G[GABA]EGTFTSDYSI[Aib]LDKIAQK([AEEA-AEEA-γGlu-C20 diacid])AFVQWLIAGGPSSGAPPPS-NH2), the EC50 is 10 to 100 nM on GLP-1 receptor [1], 1 to 10 nM on GIP receptor [2], below 1000 nM on GIP receptor [3] and above 1000 nM on GLP-1 receptor [4]. For the same molecule, the Emax is 91% at GLP-1 receptor [1] (CHO) and 104% on GIP receptor [2] (CHO).

For `CC[C@H](C)[C@H](NC(=O)[C@H](CC(C)C)NC(=O)[C@H](Cc1c[nH]c2ccccc12)NC(=O)[C@H](CCC(N)=O)NC(=O)[C@@H](NC(=O)[C@H](Cc1ccccc1)NC(=O)[C@H](C)NC(=O)[C@H](CCCCNC(=O)COCCOCCNC(=O)COCCOCCNC(=O)CC[C@H](NC(=O)CCCCCCCCCCCCCCCCCCC(=O)O)C(=O)O)NC(=O)[C@H](CCC(N)=O)NC(=O)[C@H](C)NC(=O)[C@@H](NC(=O)[C@H](CCCCN)NC(=O)[C@H](CC(=O)O)NC(=O)[C@H](CC(C)C)NC(=O)C(C)(C)NC(=O)[C@@H](NC(=O)[C@H](CO)NC(=O)[C@H](Cc1ccc(O)cc1)NC(=O)[C@H](CC(=O)O)NC(=O)[C@H](CO)NC(=O)[C@@H](NC(=O)[C@H](Cc1ccccc1)NC(=O)[C@@H](NC(=O)CNC(=O)[C@H](CCC(=O)O)NC(=O)CCCNC(=O)CNC(=O)Nc1ccc(C)cc1)[C@@H](C)O)[C@@H](C)O)[C@@H](C)CC)[C@@H](C)CC)C(C)C)C(=O)N[C@@H](C)C(=O)NCC(=O)NCC(=O)N1CCC[C@H]1C(=O)N[C@@H](CO)C(=O)N[C@@H](CO)C(=O)NCC(=O)N[C@@H](C)C(=O)N1CCC[C@H]1C(=O)N1CCC[C@H]1C(=O)N1CCC[C@H]1C(=O)N[C@@H](CO)C(N)=O` [Compound 271] ({NH(4-Me-phenyl)-CO}-G[GABA]EGTFTSDYSI[Aib]LDKIAQK([AEEA-AEEA-γGlu-C20 diacid])AFVQWLIAGGPSSGAPPPS-NH2), the half-maximal effective concentration (EC50) at GLP-1 receptor [1] is 1 to 10 nM; on GIP receptor [2] it was 1 to 10 nM; on GIP receptor [3] it was below 1000 nM; on GLP-1 receptor [4], above 1000 nM. The Emax at GLP-1 receptor [1] (CHO) stood at 94%; at GIP receptor [2] (CHO), 105%.

On to `CC[C@H](C)[C@H](NC(=O)[C@H](CC(C)C)NC(=O)[C@H](Cc1c[nH]c2ccccc12)NC(=O)[C@H](CCC(N)=O)NC(=O)[C@@H](NC(=O)[C@H](Cc1ccccc1)NC(=O)[C@H](C)NC(=O)[C@H](CCCCNC(=O)COCCOCCNC(=O)COCCOCCNC(=O)CC[C@H](NC(=O)CCCCCCCCCCCCCCCCCCC(=O)O)C(=O)O)NC(=O)[C@H](CCC(N)=O)NC(=O)[C@H](C)NC(=O)[C@@H](NC(=O)[C@H](CCCCN)NC(=O)[C@H](CC(=O)O)NC(=O)[C@H](CC(C)C)NC(=O)C(C)(C)NC(=O)[C@@H](NC(=O)[C@H](CO)NC(=O)[C@H](Cc1ccc(O)cc1)NC(=O)[C@H](CC(=O)O)NC(=O)[C@H](CO)NC(=O)[C@@H](NC(=O)[C@H](Cc1ccccc1)NC(=O)[C@@H](NC(=O)CNC(=O)[C@H](CCC(=O)O)NC(=O)CCNC(=O)[C@H](C)NC(=O)Nc1ccc(C)cc1)[C@@H](C)O)[C@@H](C)O)[C@@H](C)CC)[C@@H](C)CC)C(C)C)C(=O)N[C@@H](C)C(=O)NCC(=O)NCC(=O)N1CCC[C@H]1C(=O)N[C@@H](CO)C(=O)N[C@@H](CO)C(=O)NCC(=O)N[C@@H](C)C(=O)N1CCC[C@H]1C(=O)N1CCC[C@H]1C(=O)N1CCC[C@H]1C(=O)N[C@@H](CO)C(N)=O` [Compound 272] ({NH(4-Me-phenyl)-CO}-A[βAla]EGTFTSDYSI[Aib]LDKIAQK([AEEA-AEEA-γGlu-C20 diacid])AFVQWLIAGGPSSGAPPPS-NH2), for which the EC50 on GLP-1 receptor [1] is 10 to 100 nM; on GIP receptor [2], 10 to 100 nM; on GIP receptor [3], above 1000 nM; at GLP-1 receptor [4], above 1000 nM. In addition, the Emax on GLP-1 receptor [1] (CHO) was 75%; at GIP receptor [2] (CHO) it was 91%.

Consider `CC[C@H](C)[C@H](NC(=O)[C@H](CC(C)C)NC(=O)[C@H](Cc1c[nH]c2ccccc12)NC(=O)[C@H](CCC(N)=O)NC(=O)[C@@H](NC(=O)[C@H](Cc1ccccc1)NC(=O)[C@H](C)NC(=O)[C@H](CCCCNC(=O)COCCOCCNC(=O)COCCOCCNC(=O)CC[C@H](NC(=O)CCCCCCCCCCCCCCCCCCC(=O)O)C(=O)O)NC(=O)[C@H](CCC(N)=O)NC(=O)[C@H](C)NC(=O)[C@@H](NC(=O)[C@H](CCCCN)NC(=O)[C@H](CC(=O)O)NC(=O)[C@H](CC(C)C)NC(=O)C(C)(C)NC(=O)[C@@H](NC(=O)[C@H](CO)NC(=O)[C@H](Cc1ccc(O)cc1)NC(=O)[C@H](CC(=O)O)NC(=O)[C@H](CO)NC(=O)[C@@H](NC(=O)[C@H](Cc1ccccc1)NC(=O)[C@@H](NC(=O)CNC(=O)[C@H](CCC(=O)O)NC(=O)CCCNC(=O)CNC(=O)Nc1cccc(Cl)c1)[C@@H](C)O)[C@@H](C)O)[C@@H](C)CC)[C@@H](C)CC)C(C)C)C(=O)N[C@@H](C)C(=O)NCC(=O)NCC(=O)N1CCC[C@H]1C(=O)N[C@@H](CO)C(=O)N[C@@H](CO)C(=O)NCC(=O)N[C@@H](C)C(=O)N1CCC[C@H]1C(=O)N1CCC[C@H]1C(=O)N1CCC[C@H]1C(=O)N[C@@H](CO)C(N)=O` [Compound 273] ({NH(3-Cl-phenyl)-CO}-G[GABA]EGTFTSDYSI[Aib]LDKIAQK([AEEA-AEEA-γGlu-C20 diacid])AFVQWLIAGGPSSGAPPPS-NH2), for which the EC50 was 1 to 10 nM at GLP-1 receptor [1], 1 to 10 nM on GIP receptor [2], above 1000 nM at GIP receptor [3] and above 1000 nM at GLP-1 receptor [4]. Moreover, the Emax on GLP-1 receptor [1] (CHO) was found to be 106%; at GIP receptor [2] (CHO), 99%.

On to `CC[C@H](C)[C@H](NC(=O)[C@H](CC(C)C)NC(=O)[C@H](Cc1c[nH]c2ccccc12)NC(=O)[C@H](CCC(N)=O)NC(=O)[C@@H](NC(=O)[C@H](Cc1ccccc1)NC(=O)[C@H](C)NC(=O)[C@H](CCCCNC(=O)COCCOCCNC(=O)COCCOCCNC(=O)CC[C@H](NC(=O)CCCCCCCCCCCCCCCCCCC(=O)O)C(=O)O)NC(=O)[C@H](CCC(N)=O)NC(=O)[C@H](C)NC(=O)[C@@H](NC(=O)[C@H](CCCCN)NC(=O)[C@H](CC(=O)O)NC(=O)[C@H](CC(C)C)NC(=O)C(C)(C)NC(=O)[C@@H](NC(=O)[C@H](CO)NC(=O)[C@H](Cc1ccc(O)cc1)NC(=O)[C@H](CC(=O)O)NC(=O)[C@H](CO)NC(=O)[C@@H](NC(=O)[C@H](Cc1ccccc1)NC(=O)[C@@H](NC(=O)CNC(=O)[C@H](CCC(=O)O)NC(=O)CCNC(C)Cn1cc(Br)cn1)[C@@H](C)O)[C@@H](C)O)[C@@H](C)CC)[C@@H](C)CC)C(C)C)C(=O)N[C@@H](C)C(=O)NCC(=O)NCC(=O)N1CCC[C@H]1C(=O)N[C@@H](CO)C(=O)N[C@@H](CO)C(=O)NCC(=O)N[C@@H](C)C(=O)N1CCC[C@H]1C(=O)N1CCC[C@H]1C(=O)N1CCC[C@H]1C(=O)N[C@@H](CO)C(N)=O` (stereo partly drawn) [Compound 274] (X45-EGTFTSDYSI[Aib]LDKIAQK([AEEA-AEEA-γGlu-C20 diacid])AFVQWLIAGGPSSGAPPPS-NH2), for which the EC50 at GLP-1 receptor [1] (CHO cells stably expressing human GLP-1 receptor, cAMP accumulation, 30 min, read-out: EC50 GLP-1R) is 10 to 100 nM; at GIP receptor [2] (CHO cells stably expressing GIP receptor, cAMP accumulation, 30 min, read-out: EC50 GIP-1R), 100 to 1000 nM; at GIP receptor [3] (β-arrestin-2 recruitment, PathHunter CHO-K1 GIPR β-Arrestin Cell Line, 90 min at 37° C., normalized to GIP, read-out: GIPR β Arrestin EC50) it was above 1000 nM; on GLP-1 receptor [4] (β-arrestin-2 recruitment, PathHunter CHO-K1 GLP1R β-Arrestin Cell Line, 90 min at 37° C., normalized to GLP-1, read-out: GLP-1R β Arrestin EC50), above 1000 nM. The Emax on GLP-1 receptor [1] (CHO cells, cAMP, normalized to maximum signal from GLP-1 (high) and DMSO (low)) was 88%; at GIP receptor [2] (CHO cells, cAMP, normalized to maximum signal from GIP (high) and DMSO (low)), 36%.

Source of the values: patent US12281149B2, “Modulators of G-protein coupled receptors” (priority 2021, dated 2025).
